# Assay results: patent US6407311B1, “Methods for production of hybrid wheat” (Yeda Research & Development Co., Ltd., priority 1997, dated 2002)
# Key:
# [1] = tested on: plants of common wheat homozygous for the herbicide susceptibility allele su-B1; experiment: Spraying chlorotoluron on common wheat homozygous for su-B1; assay type: in vivo; settings: sprayed at double the rate recommended at commercial fields
# Description: To test the effect of chlorotoluron on the various genotypes we sprayed this herbicide at a rate which is double of the recommended at commercial fields on plants of common wheat homozygous for the herbicide susceptibility allele su-B1 and the line of Ae. searsii carrying the chlorotoluron resistance allele Su-S^s1. All plants carrying the recessive su-B1 allele died within 10-14 days from spraying while those carrying the dominant Su-S^s1 allele survived.
# [2] = tested on: line of Ae. searsii carrying the chlorotoluron resistance allele Su-S^s1; experiment: Spraying chlorotoluron on the Ae. searsii line carrying Su-S^s1; assay type: in vivo, Aegilops searsii; settings: sprayed at double the rate recommended at commercial fields
# Description: Different cultivars of common wheat show different reaction to the herbicide chlorotoluron and to other phenyl derivatives of urea; several cultivars carrying the dominant allele Su-B1 (e.g., Cappelle Desprez) are resistant while others carrying the recessive allele su-B1 (e.g., Chinese Spring) are susceptible (Snape et al, 1991). The gene is located on the long arm of chromosome 6B (6BL) about 0.5 cM from the centromere. […] Since chromosome 6S^sL of Ae. searsii pairs almost regularly with 6S^lL of Ae. longissima, it is possible to transfer the resistance allele to the 6S^lL arm of the engineered chromosome EC-H (FIGS. 8a,b), thus producing the engineered chromosome of the EC-HR type. […] The presence of the chlorotoluron resistance allele on the engineered chromosome facilitates the selective killing, in each generation, of the male-sterile plants that lack the engineered chromosome while unaffecting the male-fertile maintainer plants (with the engineered chromosome) in the progeny of the selfed maintainer. This will assure, that in each generation, only the male-fertile offspring of the selfed maintainer, will grow. […]
# [3] = tested on: lines of diploid Aegilops species; experiment: Reaction of lines of diploid Aegilops species to chlorotoluron; assay type: in vivo; settings: most lines
# Description: Different cultivars of common wheat show different reaction to the herbicide chlorotoluron and to other phenyl derivatives of urea; several cultivars carrying the dominant allele Su-B1 (e.g., Cappelle Desprez) are resistant while others carrying the recessive allele su-B1 (e.g., Chinese Spring) are susceptible (Snape et al, 1991). The gene is located on the long arm of chromosome 6B (6BL) about 0.5 cM from the centromere. […] Since chromosome 6S^sL of Ae. searsii pairs almost regularly with 6S^lL of Ae. longissima, it is possible to transfer the resistance allele to the 6S^lL arm of the engineered chromosome EC-H (FIGS. 8a,b), thus producing the engineered chromosome of the EC-HR type. […] The presence of the chlorotoluron resistance allele on the engineered chromosome facilitates the selective killing, in each generation, of the male-sterile plants that lack the engineered chromosome while unaffecting the male-fertile maintainer plants (with the engineered chromosome) in the progeny of the selfed maintainer. This will assure, that in each generation, only the male-fertile offspring of the selfed maintainer, will grow.
# [4] = tested on: plants with 2n=42 (lacking the EC-HR1); experiment: Chlorotoluron on selfed progeny of EC-HR1 monosomic addition plants, 2n=42; assay type: in vivo, common wheat
# Description: (§1) To construct the engineered chromosome EC-HR1, the dominant chlorotoluron resistance allele Su-S^s1 is transferred from chromosome arm 6S^sL of a selected line of Ae. searsii into the 6S^lL arm of the engineered chromosome EC-H1. This is achieved by crossing a […] female parent derived from the male-fertile maintainer line in the common wheat cultivar Chinese Spring. This female parent is homozygous for the ms-B1, su-B1 and Ki-B1 alleles and has, as a monosomic addition, the engineered chromosome EC-H1 (4S^sS/6S^lL) carrying on its short arm the Ms-S^s1 and rht-S^s1 alleles and on its long arm the su-S1ki-S^l1-a alleles, with a line of the diploid species Ae. searsii carrying the chlorotoluron resistance allele on the long arm of chromosome 6S^s, i.e., on 6S^sL, as well as the Ms-S^s1 and rht-S^s1 alleles on 4S^sS. About 20% of the F1 progeny have the engineered chromosome EC-H1 and therefore contain 2n=29 chromosomes and can be distinguished from the other F1 plants having 2n=28. […] Pollinating the 2n=29 F1 plants once or twice with Chinese Spring, homozygous for su-B1 yields plants with 2n=43 (21″+1′) containing the desired engineered chromosome EC-HR1 as a monosomic addition.
# [5] = tested on: plants with 2n=43 carrying the EC-HR1; experiment: Chlorotoluron on selfed progeny of EC-HR1 monosomic addition plants, 2n=43; assay type: in vivo, common wheat
# Description: as §1
# [6] = tested on: cultivars carrying the dominant allele Su-B1 (e.g., Cappelle Desprez); settings: Snape et al, 1991; cited from earlier work
# [7] = tested on: cultivars carrying the recessive allele su-B1 (e.g., Chinese Spring); settings: Snape et al, 1991; cited from earlier work
compound,measurement,setting,value
"Cc1ccc(NC(=O)N(C)C)cc1Cl [chlorotoluron, 3-(3-chloro-p-tolyl)-1,1-dimethylurea]",outcome of plants after spraying,[1],died
same,time to death from spraying,[1],10 to 14 days
same,outcome of plants after spraying,[2],survived
same,reaction to the herbicide,[3],susceptible
same,effect on plants lacking the resistance allele,[4],kills all plants
same,effect on plants carrying EC-HR1,[5],unaffected
same,reaction to the herbicide,[6],resistant
same,reaction to the herbicide,[7],susceptible
